Results as given in patent US20250268895A1, “Crystalline Forms of a BTK Inhibitor” (NOVARTIS AG, priority 2019, published 2025).
Values belong to the compound of their own block, whether it stands above or below them.

Tests used:
Type in all cases: physicochemical
[1] = Solvent equilibration of Modification A (stability in solvent, HT-XRPD)
Method: (§1) Suspensions of Modification A were prepared in 23 selected solvents and let to equilibrate at room temperature (RT) for 4 weeks and at 50° C. for 2 weeks. Upon completion of the equilibration time, the solids were separated from the liquid phases, dried at ambient conditions and under vacuum (5 mbar/50° C.), and analyzed by HT-XRPD.
When the suspensions dissolved, the solvent was removed by evaporation under vacuum (initially at 200 mbar/RT, then at 5 mbar/50° C.). The liquid phases were also evaporated under the same conditions. Residual solids were analyzed by HT-XRPD.

[2] = Moisture uptake at 80% and 92% RH (HT-XRPD, TGMS); settings: 25° C., 24 hours
Method: The moisture sorption of Modification A was evaluated by exposing the solid material to 80% and 92% RH at 25° C. for 24 hours. Afterwards, the solids were analyzed by HT-XRPD to evaluate any change in crystalline phase, and by TGMS to determine the water uptake. […] Therefore, Modification A could be considered non-hygroscopic.

[3] = Physico-chemical stability under stress conditions (HR-XRPD, TGMS, HPLC assay); settings: for XRPD pattern after stress conditions: all three test conditions (80° C. 1 month; 80° C./75% RH 1 month; 100° C. 3 days)
Method: Modifications A, B and C were subjected to the following stress conditions: • 80° C. in closed vials for 1 month; • 80° C./75% RH in open vials for 1 month; • 100° C. in closed vials for 3 days;
Afterwards, the solids were analyzed by HR-XRPD, TGMS and HPLC assay to evaluate potential solid phase change, loss on drying and chemical purity.
Upon completion of the stability test, all solids were analyzed by HR-XRPD, TGMS and HPLC assay.
Auto sampler temp.: 15° C.
Column: Waters Sunfire C18 (100×4.6 mm; 3.5 μm).
Gradient: Mobile phase A: 0.1% TFA in Water
Mobile phase B: 0.1% TFA in Acetonitrile

[4] = Dynamic vapor sorption (DVS); settings: for DVS highest change in mass: 95% RH
[5] = Granulation simulation experiments; settings: water, ethanol, 2-propanol, Acetone, benzylalcohol; dried under vacuum
Method: Granulating solvents were added drop wise to polymorphic Form A until solid is wetted sufficiently. The suspension was stirred by Vortex between each addition. The suspension was dried under vacuum. The remaining solid form was isolated and degree of crystallinity was analyzed by XRPD and/or DSC. The tested Granulating solvents were water, ethanol, 2-propanol, Acetone, benzylalcohol.

[6] = Stability under compression; settings: 5 minutes at 10 tons, hydraulic press
Method: 100-300 mg of polymorphic Form A was compressed for 5 minutes at 10 tons with a hydraulic press (diameter of the tablets 13 mm). The sample was then analyzed by XRPD and DSC to check for any occurring polymorphic change.

[7] = Solvent equilibration of Modifications B and C (stability in solvent, HT-XRPD)
Method: as §1, with “Modifications B and C” for “Modification A”, “15” for “23”, “RT” for “room temperature (RT)”, “2” for “4”, “1 week.” for “2 weeks.”
When the suspensions dissolved, the solvent was removed by evaporation under vacuum (initially 200 mbar/RT, then 5 mbar/50° C.). The liquid phases were also evaporated under the same conditions. Residual solids were analyzed by HT-XRPD.

[8] = Conversion at room temperature monitored by HR-XRPD; settings: left at room temperature
Text: Modification C (Example 2) was left at room temperature and the conversion into Modification B was monitored by HR-XRPD and it was complete after 5 days.

[9] = 80° C./75% RH, 1 month, open vial
[10] = Dichloromethane, 50° C., 1 week

- HT-XRPD Evap. ML ([1]; Acetone, 50° C., 2 weeks): A (l.y.)
- HT-XRPD Evap. ML ([1]; Acetonitrile, 50° C., 2 weeks): A (l.y.)
- HT-XRPD Evap. ML ([1]; Anisole, 50° C., 2 weeks): A (l.y.)
- HT-XRPD Evap. ML ([1]; Chloroform, 50° C., 2 weeks): A + B
- HT-XRPD Vacuum dried ([1]; DCM, RT, 4 weeks): B + C
- HT-XRPD Evap. ML ([1]; Isopropyl acetate, 50° C., 2 weeks): A (l.y.)
- HT-XRPD Evap. ML ([1]; MeOH, RT, 4 weeks): A (l.y.)
- HT-XRPD Evap. ML ([1]; MeOH/Acetone 50/50, RT, 4 weeks): A (l.y.)
- HT-XRPD Evap. ML ([1]; MeOH/DCM 50/50, RT, 4 weeks): B (l.y.)
- HT-XRPD Vacuum dried ([1]; MeOH/DCM 50/50, RT, 4 weeks): B + C
- HT-XRPD Evap. ML ([1]; Nitromethane, 50° C., 2 weeks): A (l.y.)
- HT-XRPD Evap. ML ([1]; Water, 50° C., 2 weeks): A (l.y.)
- TGMS mass loss after exposure to humidity ([2]; 80% RH): 0.2%
- Hygroscopicity ([2]; 80% and 92% RH): non-hygroscopic
- Physical stability (HT-XRPD) after exposure to humidity ([2]; 80 and 92% RH): physically stable
- TGMS mass loss after exposure to humidity ([2]; 92% RH): 0.2%
- Loss on drying ([3]; 80° C., 1 month, closed vial): 0.003%
- Loss on drying [3, 9]: 0.003%
- Loss on drying ([3]; 100° C., 3 days, closed vial): 0.003%
- XRPD pattern after stress conditions [3]: unchanged
- Solid recovered after DVS measurements ([4]; 25° and 40° C.): still Modification A
- DVS highest change in mass ([4]; 25° C.): 0.4%
- DVS highest change in mass ([4]; 40° C.): 0.3%
- Crystallinity (XRPD and/or DSC) after granulation simulation [5]: No change of crystallinity
- Polymorphic change (XRPD and DSC) after compression [6]: no change to the material
Compound: C=CC(=O)N(C)CCOc1c(N)ncnc1-c1cc(F)cc(NC(=O)c2ccc(C3CC3)cc2F)c1C [Modification A, N-(3-(6-Amino-5-(2-(N-methylacrylamido)ethoxy)pyrimidin-4-yl)-5-fluoro-2-methylphenyl)-4-cyclopropyl-2-fluorobenzamide]
- DVS water vapor uptake ([4]; 25° and 40° C., RH profile 40-0-95-0-95-40%): did not show significant water vapor uptake

- HT-XRPD Evap. ML ([7]; Acetonitrile, 50° C., 1 week): A (l.y.)
- HT-XRPD Evap. ML ([7]; Anisole, RT, 2 weeks): A (l.y.)
- HT-XRPD Ambient Dried ([7]; Chloroform, RT, 2 weeks): A (l.y)
- HT-XRPD Vacuum dried ([7]; Chloroform, RT, 2 weeks): (l.c.)
- HT-XRPD Evap. ML [7, 10]: B + C
- HT-XRPD Vacuum dried [7, 10]: B + C
- HT-XRPD Ambient Dried ([7]; Dichloromethane, RT, 2 weeks): C (l.c.)
- HT-XRPD Evap. ML ([7]; Dichloromethane, RT, 2 weeks): B + SB (l.y.)
- HT-XRPD Vacuum dried ([7]; Dichloromethane, RT, 2 weeks): B + C
- HT-XRPD Evap. ML ([7]; Ethanol, 50° C., 1 week): A (l.y.)
- HT-XRPD Evap. ML ([7]; Isopropyl acetate, 50° C., 1 week): A (l.y.)
- HT-XRPD Evap. ML ([7]; Nitromethane, RT, 2 weeks): A (l.y.)
- Loss on drying ([3]; 80° C., 1 month, closed vial): 0.009%
- Loss on drying [3, 9]: 0.004%
- Loss on drying ([3]; 100° C., 3 days, closed vial): 0.004%
- XRPD pattern after stress conditions [3]: unchanged
- XRPD of solid recovered after DVS measurement ([4]; Modifications B and C, 25° C.): unchanged
Compound: C=CC(=O)N(C)CCOc1c(N)ncnc1-c1cc(F)cc(NC(=O)c2ccc(C3CC3)cc2F)c1C [Modification B, N-(3-(6-Amino-5-(2-(N-methylacrylamido)ethoxy)pyrimidin-4-yl)-5-fluoro-2-methylphenyl)-4-cyclopropyl-2-fluorobenzamide]
- DVS water vapor uptake ([4]; Modifications B and C): did not show significant water vapor uptake

- HT-XRPD Evap. ML ([7]; 2-Methyl-2-butanol, 50° C., 1 week): A (l.y.)
- HT-XRPD Evap. ML ([7]; Acetone, 50° C., 1 week): A (l.y.)
- HT-XRPD Evap. ML ([7]; Acetonitrile, 50° C., 1 week): A (l.y.)
- HT-XRPD Evap. ML ([7]; Anisole, RT, 2 weeks): A (l.y.)
- HT-XRPD Ambient Dried ([7]; Chloroform, RT, 2 weeks): C + SC
- HT-XRPD Evap. ML ([7]; Chloroform, RT, 2 weeks): C + SC
- HT-XRPD Evap. ML ([7]; Cyclopentanone, RT, 2 weeks): A (l.y)
- HT-XRPD Evap. ML [7, 10]: C (l.y.)
- HT-XRPD Vacuum dried ([7]; Dichloromethane, RT, 2 weeks): B + C
- HT-XRPD Evap. ML ([7]; Ethanol, 50° C., 1 week): A (l.y.)
- HT-XRPD Evap. ML ([7]; Ethanol, RT, 2 weeks): A (l.y.)
- HT-XRPD Evap. ML ([7]; Isopropyl acetate, RT, 2 weeks): A (l.y.)
- HT-XRPD Evap. ML ([7]; Methanol, RT, 2 weeks): A (l.y.)
- HT-XRPD Evap. ML ([7]; Nitromethane, 50° C., 1 week): A (l.y.)
- HT-XRPD Evap. ML ([7]; Nitromethane, RT, 2 weeks): A (l.y.)
- HT-XRPD Evap. ML ([7]; Water, RT, 2 weeks): A (l.y.)
- Time to complete conversion into Modification B [8]: 5 days
- Loss on drying ([3]; 80° C., 1 month, closed vial): 0.007%
- Loss on drying [3, 9]: 0.006%
- Loss on drying ([3]; 100° C., 3 days, closed vial): 0.003%
- XRPD pattern after stress conditions [3]: converted to Modification B
- XRPD of solid recovered after DVS measurement ([4]; Modifications B and C, 25° C.): mixture of Modifications B and C
Compound: C=CC(=O)N(C)CCOc1c(N)ncnc1-c1cc(F)cc(NC(=O)c2ccc(C3CC3)cc2F)c1C [Modification C, N-(3-(6-Amino-5-(2-(N-methylacrylamido)ethoxy)pyrimidin-4-yl)-5-fluoro-2-methylphenyl)-4-cyclopropyl-2-fluorobenzamide]
- DVS water vapor uptake ([4]; Modifications B and C): did not show significant water vapor uptake
